The subject of experiment [1] is OVCAR-3 human ovarian adenocarcinoma cells. The experiment is described as follows: OVCAR-3 tumor cell proliferation inhibition (CellTiter-Glo). The conditions noted are these: 3 d culture. The format is cell-based. The procedure: OVCAR-3 was purchased from ATCC; article No.: HTB-161; RPMI1640 was purchased from Gibco; article No.: 11875-093; Pancreatin (including EDTA) was purchased from Gibco; article No.: 25200-072; FBS was purchased from Gibco; Article No.: 10091-148; CellTiter-Glo was purchased from Promega; article No.: G7573; Bovine insulin was purchased from absin; article No.: abs9169; DMSO was purchased from VWR AMRESCO; article No.: 0231-500ML; Staurosporine was purchased from Selleck; article No.: S1421; a cell counter was purchased from CHEMOMETEC; model: NC-200; and a microplate reader was purchased from PerkinElmer; Model: Envison.
(§1) OVCAR-3 was human ovarian adenocarcinoma cells cultured in an RPMI-1640 culture medium containing 20% FBS and 0.01 mg/mL of Bovine insulin. Cells in logarithmic phase were taken, and the cells were subjected to digesting, collecting and counting with pancreatin-EDTA, 2000 OVCAR-3 cells/well were inoculated in a 384-well cell plate, and were cultured in 5% CO2 overnight. A 1000× compound stock solution with 3.16 times of gradient concentration was prepared with DMSO, and was diluted 100 times to 10× compound stock solution with a culture medium, and 10× compound stock solution was added into each cell culture well on the next day after cell inoculation, wherein the final concentration was 1×, and the DMSO content was 0.1%. The cell group was treated with DMSO as an experimental control (control), and the cell group was treated with 5 μM of Staurosporine as a blank control (blank).
(In ATP-based viability assays light output follows the ATP content of the culture.)

The subject of experiment [2] is HCC70 human breast ductal cancer cells. The experiment is described as follows: HCC70 tumor cell proliferation inhibition (CellTiter-Glo). In kind it is cell-based. The following applies: 3 d culture. As to the method:
HCC70 was purchased from ATCC; article No.: CRL-2315; RPMI1640 was purchased from Gibco; article No.: 11875-093; Pancreatin (including EDTA) was purchased from Gibco; article No.: 25200-072; FBS was purchased from Gibco; article No.: 10099-141C; CellTiter-Glo was purchased from Promega; article No.: G7573; DMSO was purchased from VWR AMRESCO; article No.: 0231-500ML; Staurosporine was purchased from Selleck; article No.: S1421; a cell counter was purchased from CHEMOMETEC; model: NC-200; and a microplate reader was purchased from PerkinElmer; Model: Envison.
as §1, with “HCC70” for “OVCAR-3”, “breast ductal cancer” for “ovarian adenocarcinoma”, “10% FBS.” for “20% FBS and 0.01 mg/mL of Bovine insulin.”

As usually defined, the IC50 is the midpoint of a concentration-inhibition curve. The low end stands for greater potency in that assay, the high end for weaker potency in that assay. In the case of `CP(C)(=O)c1c2ccc3c(c[nH]c13)-c1nc(ncc1C(F)(F)F)N[C@H]1CC[C@@H](C1)NCC[C@@H](F)CNC2=O` (single isomer, unassigned) [Compound Z68-1], the half-inhibitory concentration (IC50) in experiment [1] was 35.8 nM; in experiment [2], 10.3 nM.

In the case of `CP(C)(=O)c1c2ccc3c(c[nH]c13)-c1nc(ncc1C(F)(F)F)N[C@H]1CC[C@@H](C1)NCC[C@H](F)CNC2=O` (single isomer, unassigned) [Compound Z68-2], the IC50 in experiment [1] came out at 8.84 nM; in experiment [2] it was 3.18 nM. In the case of `CN1C[C@H](F)CCN[C@H]2CC[C@@H](C2)Nc2ncc(C(F)(F)F)c(n2)-c2c[nH]c3c(P(C)(C)=O)c(ccc23)C1=O` (single isomer, unassigned) [Compound Z76], the IC50 in experiment [1] is 31.5 nM; in experiment [2], 21.9 nM. As for `CP(C)(=O)c1c2ccc3c(c[nH]c13)-c1nc(ncc1C(F)(F)F)N[C@H]1CC[C@@H](C1)NCCCCCNC2=O` [Compound Z6, (41 S,4^3S)-1^7-(dimethylphosphoryl)-2^5-(trifluoromethyl)-1^1H-3,5,11-triaza-1(3,6)-indola-2(4,2)-pyrimidina-4(1,3)-cyclopentanacyclododecaphan-12-one], 222 nM corresponded to half-maximal inhibition in experiment [2] (IC50). Compound `CP(C)(=O)c1c2ccc3c(c[nH]c13)-c1nc(ncc1C(F)(F)F)N[C@H]1CCC[C@@H](C1)NCCCCNC2=O` [Compound Z9, (4^1S,4^3S)-1^7-(dimethylphosphoryl)-2^5-(trifluoromethyl)-1^1H-3,5,10-triaza-1(3,6)-indola-2(4,2)-pyrimidina-4(1,3)-cyclohexanacycloundecaphan-11-one] registered a concentration for half-maximal inhibition (IC50) in experiment [2] of 99.8 nM. The same measure, in the same setting: the same measure for `CP(C)(=O)c1c2ccc3c(c[nH]c13)-c1nc(ncc1C(F)(F)F)N[C@H]1CC[C@@H](C1)NCCCNC2=O` [Compound Z10, (4^1S, 4^3S)-1^7-(dimethylphosphoryl)-2^5-(trifluoromethyl)-1^1H-3,5,9-triaza-1(3,6)-indola-2(4,2)-pyrimidina-4(1,3)-cyclopentanacyclodecaphan-10-one]: 162 nM; for `O=C1NCCCCN[C@H]2CCC(C2)Nc2ncc(C(F)(F)F)c(n2)-c2c[nH]c3c(Cl)c1ccc23` [Compound Z11, (4^1S,43S)-1^7-chloro-2^5-(trifluoromethyl)-1^1H-3,5,10-triaza-1(3,6)-indola-2(4,2)-pyrimidina-4(1,3)-cyclopentanacycloundecaphan-11-one]: 186 nM; for `CN1CCCCNC(=O)c2ccc3c(c[nH]c3c2P(C)(C)=O)-c2nc(ncc2C(F)(F)F)N[C@H]2CC[C@H]1C2` [Compound Z16, (4^1S,43S)-1^7-(dimethylphosphoryl)-5-methyl-2^5-(trifluoromethyl)-1^1H-3,5,10-triaza-1(3,6)-indola-2(4,2)-pyrimidina-4(1,3)-cyclopentanacycloundecaphan-11-one]: 23 nM. On the same count and under the same terms, in the case of `CP(C)(=O)c1c2ccc3c(c[nH]c13)-c1nc(ncc1C(F)(F)F)N[C@H]1CC[C@@H](C1)NCCC(F)(F)CNC2=O` [Compound Z19, (4^1S,43S)-17-(dimethylphosphoryl)-8,8-difluoro-2^5-(trifluoromethyl)-1^1H-3,5,10-triaza-1(3,6)-indola-2(4,2)-pyrimidina-4(1,3)-cyclopentanacycloundecaphan-11-one] it was 15.4 nM. For `N#Cc1c2ccc3c(c[nH]c13)-c1nc(ncc1C(F)(F)F)N[C@H]1CC[C@@H](C1)NCCCCNC2=O` [Compound Z23, (4^1S,4^3S)-11-oxo-2^5-(trifluoromethyl)-1^1H-3,5,10-triaza-1(3,6)-indola-2(4,2)-pyrimidina-4(1,3)-cyclopentanacycloundecaphane-17-carbonitrile], the IC50 in experiment [1] is 135 nM; in experiment [2], 66.6 nM. The compound `CN1CCCCN(C)[C@H]2CC[C@@H](C2)Nc2ncc(C(F)(F)F)c(n2)-c2c[nH]c3c(P(C)(C)=O)c(ccc23)C1=O` [Compound Z27, (4^1S,4^3S)-1^7-(dimethylphosphoryl)-5,10-dimethyl-2^5-(trifluoromethyl)-1^1H-3,5,10-triaza-1(3,6)-indola-2(4,2)-pyrimidina-4(1,3)-cyclopentanacycloundecaphan-11-one] had an IC50 in experiment [2] of 9.7 nM.

Compound `CC1CCCNC(=O)c2ccc3c(c[nH]c3c2P(C)(C)=O)-c2nc(ncc2C(F)(F)F)N[C@H]2CC[C@@H](C2)N1` (some centres unmarked) [Compound Z58, (4^1S,4^3S)-1^7-(dimethylphosphoryl)-6-methyl-2^5-(trifluoromethyl)-1^1H-3,5,10-triaza-1(3,6)-indola-2(4,2)-pyrimidina-4(1,3)-cyclopentanacycloundecaphan-11-one] gave an IC50 in experiment [2] of 233 nM. Same read-out and setting: the same measure for `CP(C)(=O)c1c2ccc3c(c[nH]c13)-c1nc(ncc1C(F)(F)F)N[C@H]1CC[C@@H](C1)NCCCCCCNC2=O` [Compound Z59, (4^1S,4^3S)-1^7-(dimethylphosphoryl)-2^5-(trifluoromethyl)-1^1H-3,5,12-triaza-1(3,6)-indola-2(4,2)-pyrimidina-4(1,3)-cyclopentanacyclotridecaphan-13-one]: 422 nM; for `CN1CCOCCNC(=O)c2ccc3c(c[nH]c3c2P(C)(C)=O)-c2nc(ncc2C(F)(F)F)NC2CCC1C2` [Compound Z60, (4^1S,43S)-17-(dimethylphosphoryl)-5-methyl-2^5-(trifluoromethyl)-1^1H-8-oxa-3,5,11-triaza-1(3,6)-indola-2(4,2)-pyrimidina-4(1,3)-cyclopentanacyclododecaphan-12-one]: 89 nM. For `CN1CCCCNC2CCC(C2)Nc2ncc(C(F)(F)F)c(n2)-c2c[nH]c3c(P(C)(C)=O)c(ccc23)C1=O` (centres unmarked) [Compound Z62, (41 S,4^3S)-1^7-(dimethylphosphoryl)-10-methyl-2^5-(trifluoromethyl)-1^1H-3,5,10-triaza-1(3,6)-indola-2(4,2)-pyrimidina-4(1,3)-cyclopentanacycloundecaphan-11-one], the IC50 in experiment [1] is 15.9 nM; in experiment [2], 24.6 nM. `CN1CCOCCN(C)[C@H]2CC[C@@H](C2)Nc2ncc(C(F)(F)F)c(n2)-c2c[nH]c3c(P(C)(C)=O)c(ccc23)C1=O` [Compound Z63, (4^1S,4^3S)-1^7-(dimethylphosphoryl)-5,11-dimethyl-2^5-(trifluoromethyl)-1^1H-8-oxa-3,5,11-triaza-1(3,6)-indola-2(4,2)-pyrimidina-4(1,3)-cyclopentanacyclododecaphan-12-one]: the IC50 came out at 195 nM in experiment [1] and 134 nM in experiment [2]. `CN1CCOCCNC2CCC(C2)Nc2ncc(C(F)(F)F)c(n2)-c2c[nH]c3c(S(C)(=O)=O)c(ccc23)C1=O` (centres unmarked) [Compound Z72, (4^1S,4^3S)-11-methyl-1^7-(methylsulfonyl)-2^5-(trifluoromethyl)-1^1H-8-oxa-3,5,11-triaza-1(3,6)-indola-2(4,2)-pyrimidina-4(1,3)-cyclopentanacyclododecaphan-12-one] returned an IC50 in experiment [2] of 869 nM.

The compound `CN1CCC(F)CN(C)C2CC[C@@H](C2)Nc2ncc(C(F)(F)F)c(n2)-c2c[nH]c3c(P(C)(C)=O)c(ccc23)C1=O` (some centres unmarked) [Compound Z87, (4^1S)-1^7-(dimethylphosphoryl)-7-fluoro-5,10-dimethyl-2^5-(trifluoromethyl)-1^1H-3,5,10-triaza-1(3,6)-indola-2(4,2)-pyrimidina-4(1,3)-cyclopentanacycloundecaphan-11-one] came in with an IC50 in experiment [2] of 243 nM.

For the compound `CN1CCC(F)CN(C)C2CC[C@@H](C2)Nc2ncc(C(F)(F)F)c(n2)-c2c[nH]c3c(P(C)(C)=O)c(ccc23)C1=O` (some centres unmarked) [Compound Z88, (4^1S)-1^7-(dimethylphosphoryl)-7-fluoro-5,10-dimethyl-2^5-(trifluoromethyl)-1^1H-3,5,10-triaza-1(3,6)-indola-2(4,2)-pyrimidina-4(1,3)-cyclopentanacycloundecaphan-11-one], the IC50 in experiment [2] was 241 nM.

The compound “(4^3S)-1^7-(dimethylphosphoryl)-2^5-(trifluoromethyl)-1^1H-3,11-diaza-1(3,6)-indola-2(4,2)-pyrimidina-4(3,1)-piperidinacyclododecaphan-12-one [Compound Z61]” yielded an IC50 in experiment [2] of 390 nM.

The values are drawn from patent publication US20250145632A1, “Pyrimidine Heterocyclic Compound, Preparation Method Thereof and use Thereof in Medicine” (INSILICO MEDICINE IP LIMITED, priority 2021, published 2025).
